Reference: patent US11208413B2, “Pyrimidopyrimidinones useful as wee-1 kinase inhibitors” (ALMAC DISCOVERY LIMITED, priority 2017, dated 2021)
≈ marks a conversion by molar mass, not a printed value. Where two headings read alike, the source gives them in different places.

Tests used:
[1] = biological target: Wee-1 kinase (Homo sapiens, UniProt P30291); assay: Wee-1 kinase inhibitory effect (Wee-1 IC50); format: biochemical; settings: read-out: Wee1 IC50
[2] = system: pCDC2; assay: Wee-1 potency in cells (pCDC2 value); format: cell-based
[3] = Kinetic solubility; format: physicochemical; settings: kinetic from dmso stock
Description: (§1) The test methods employed to determine Wee-1 kinase inhibitory effect, Wee-1 potency in cells and kinetic solubility were the same as those taught in WO 2015/092431 (see page 350 to 358). The other test methods employed were as follows: • i. Determination of Caco-2 permeability at pH 6.5 (pH7.4 for Comparative Example 6) was carried out at Cyprotex Ltd using standard protocols and SOPs. • ii. […] Dosing was as follows: single oral dose 5 mg/kg; single intravenous dose 1 mg/kg. • iii. Determination of pharmacokinetic parameters (CUT1/2/AUC/F %) in male Sprague-Dawley rats on Comparative Example 18 was carried out at BioDuro using standard protocols and SOPs. Dosing was as follows: oral dosing 5 mg/kg; intravenous dosing 1 mg/kg • iv. […] Dosing was as follows: repeated oral dose of 30 mg/kg, once a day for 7 days. Concentrations were measured at 4 h post dose on day 7. • v. Determination of tumor:plasma concentration ratio in the tumor-bearing mouse was carried out at Axis Bioservices Ltd using standard protocols and SOPs. Dosing was as follows: single oral dose of 30 mg/kg. • vi. Determination of CYP3A4/5 time-dependent inhibition (CYP3A4/5 IC50 shift value) was carried out at Cyprotex Ltd using standard protocols and SOPs. The in-vitro test system was: pooled human liver microsomes; a 30-min preincubation step with and without NADPH was included to observe the IC50 shift. • vii. Determination of the formation of reactive metabolites was carried out at Admescope Ltd using standard protocols and SOPs. The in-vitro test system was: human hepatocytes; the duration of incubation was: 2 hours; the technique for metabolite analysis was: LC-MS/MS.

[4] = Rat pharmacokinetics (CL, T1/2, AUC, F %); format: in vivo; settings: male Sprague-Dawley rats; for clearance: single intravenous dose 1 mg/kg, plasma clearance, read-out: Rat PK CL; for AUC(0-inf): single oral dose 5 mg/kg, plasma exposure, read-out: Rat PK AUCinf; for half-life / bioavailability: plasma, intravenous 1 mg/kg; for half-life: elimination half-life, read-out: Rat PK T1/2 (converted); for bioavailability: oral 5 mg/kg, oral bioavailability, read-out: Rat PK F %
Description: as §1

[5] = system: human hepatocytes; assay: Formation of reactive metabolites in human hepatocytes; format: in vitro ADME; settings: 2 hours incubation, LC-MS/MS
Description: as §1, with “Determination of the formation of reactive metabolites was carried out at Admescope Ltd using standard protocols and SOPs. The in-vitro test system was: human hepatocytes; the duration of incubation was: 2 hours; the technique for metabolite analysis was: LC-MS/MS.” left out

[6] = Brain:plasma concentration ratio in healthy mouse; format: in vivo; settings: oral 30 mg/kg once a day for 7 days, 4 h post dose on day 7, read-out: Mouse tissue distribution brain/plasma ratio
Description: as §1, with “Determination of the formation of reactive metabolites was carried out at Admescope Ltd using standard protocols and SOPs. The in-vitro test system was: human hepatocytes; the duration of incubation was: 2 hours; the technique for metabolite analysis was: LC-MS/MS.” left out

[7] = Caco-2 permeability (Papp A-B); format: in vitro ADME; settings: human
Description: as §1

[8] = system: CYP3A4/5; assay: CYP3A4/5 time-dependent inhibition (IC50 shift); format: in vitro ADME; settings: pooled human liver microsomes, 30-min preincubation with and without NADPH
Description: as §1, with “Determination of the formation of reactive metabolites was carried out at Admescope Ltd using standard protocols and SOPs. The in-vitro test system was: human hepatocytes; the duration of incubation was: 2 hours; the technique for metabolite analysis was: LC-MS/MS.” left out

[9] = Tumor:plasma concentration ratio in tumor-bearing mouse; format: in vivo; settings: single oral dose 30 mg/kg, read-out: Mouse tissue distribution tumor/plasma ratio
Description: as §1, with “Determination of the formation of reactive metabolites was carried out at Admescope Ltd using standard protocols and SOPs. The in-vitro test system was: human hepatocytes; the duration of incubation was: 2 hours; the technique for metabolite analysis was: LC-MS/MS.” left out

[10] = Solubility in fasted state simulated gastric fluid (FaSSGF); format: physicochemical
[11] = Chemical stability in solution; format: physicochemical; settings: Buffer at pH 7.4 and in DMSO
[12] = pH 6.5, read-out: caco-2 Papp A-B pH 6.5

Wee-1 kinase, sequence (P30291 whole entry): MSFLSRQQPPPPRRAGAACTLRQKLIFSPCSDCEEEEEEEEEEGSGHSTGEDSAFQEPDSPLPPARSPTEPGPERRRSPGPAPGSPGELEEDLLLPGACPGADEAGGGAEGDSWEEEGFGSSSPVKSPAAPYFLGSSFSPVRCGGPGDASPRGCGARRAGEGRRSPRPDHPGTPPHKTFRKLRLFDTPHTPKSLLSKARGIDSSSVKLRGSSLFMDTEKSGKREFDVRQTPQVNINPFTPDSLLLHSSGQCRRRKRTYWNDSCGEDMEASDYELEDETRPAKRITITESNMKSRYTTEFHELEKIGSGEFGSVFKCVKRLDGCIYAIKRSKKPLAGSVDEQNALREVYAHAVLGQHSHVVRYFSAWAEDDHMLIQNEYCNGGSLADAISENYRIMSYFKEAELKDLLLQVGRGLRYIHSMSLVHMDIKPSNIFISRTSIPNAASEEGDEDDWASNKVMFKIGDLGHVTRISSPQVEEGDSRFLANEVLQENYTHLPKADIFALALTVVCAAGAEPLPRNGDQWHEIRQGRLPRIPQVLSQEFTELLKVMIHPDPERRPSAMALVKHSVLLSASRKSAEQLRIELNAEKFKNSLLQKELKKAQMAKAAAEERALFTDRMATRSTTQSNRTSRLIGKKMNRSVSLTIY

| Structure (SMILES) | IC50 [1] | EC50 [2] | solubility kinetic [3] | clearance [4] | AUC(0-inf) [4] | half-life [4] | bioavailability [4] | Reactive metabolite detected [5] | Kp at 4 h [6] | Papp A→B ([7]; pH 7.4, read-out: caco-2 Papp A-B (pH 7.4)) | CYP3A4/5 IC50 shift [8] | Kp [9] | Papp A→B [7, 12] | solubility in fasted state simulated gastric fluid (FaSSGF) [10] | chemical stability in solution [11] |
| --- | --- | --- | --- | --- | --- | --- | --- | --- | --- | --- | --- | --- | --- | --- | --- |
| Cc1cc(Nc2ncc3c(n2)N(C)CN(c2c(C)cccc2Cl)C3=O)ccc1C1CCN(C)CC1 [CE 1, 3-(2-chloro-6-methylphenyl)-1-methyl-7-((3-methyl-4-(1-methylpiperidin-4-yl)phenyl)amino)-2,3-dihydropyrimido[4,5-d]pyrimidin-4(1H)-one] | 2.8 nM | 695 nM | 189 µM (≈ 92.8 µg/mL) | – | – | – | – | – | – | – | – | – | – | – | – |
| Cc1cc(Nc2ncc3c(n2)N(C)CN(c2c(Cl)cccc2Cl)C3=O)ccc1C1CCNCC1 [CE 18] | 3.7 nM | 223 nM | 200 µM (≈ 99.5 µg/mL) | 48 mL/min/kg | 120 ng·h/mL | – | 7% | – | – | – | – | – | 0.3 ×10⁻⁶ cm/s | – | – |
| CN1CCC(c2ccc(Nc3ncc4c(n3)N(C)CN(c3c(Cl)cccc3Cl)C4=O)cc2)CC1 [CE 95] | 7.9 nM | 378 nM | 123 µM (≈ 61.2 µg/mL) | – | – | – | – | – | – | – | – | – | – | – | – |
| CN1CCC(c2ccc(Nc3ncc4c(n3)N(C)CN(c3c(Cl)cccc3Cl)C4=O)cc2CO)CC1 [CE 165] | 3.1 nM | 347 nM | 194 µM (≈ 102 µg/mL) | 27 mL/min/kg | 397 ng·h/mL | 126 min | 8% | – | – | – | – | – | 0.3 ×10⁻⁶ cm/s | – | – |
| COc1cc(Nc2ncc3c(n2)N(C)CN(c2c(Cl)cccc2Cl)C3=O)ccc1C1CCN(C)CC1 [CE 183] | 3.1 nM | 502 nM | 60 µM (≈ 31.6 µg/mL) | – | – | – | – | – | – | – | – | – | – | – | – |

Second part, the compound after the results:

| IC50 [1] | EC50 [2] | solubility kinetic [3] | clearance [4] | AUC(0-inf) [4] | half-life [4] | bioavailability [4] | Reactive metabolite detected [5] | Kp at 4 h [6] | Papp A→B ([7]; pH 7.4, read-out: caco-2 Papp A-B (pH 7.4)) | CYP3A4/5 IC50 shift [8] | Kp [9] | Papp A→B [7, 12] | solubility in fasted state simulated gastric fluid (FaSSGF) [10] | chemical stability in solution [11] | Structure (SMILES) |
| --- | --- | --- | --- | --- | --- | --- | --- | --- | --- | --- | --- | --- | --- | --- | --- |
| 2.7 nM | 223 nM | 170 µM (≈ 84.7 µg/mL) | 26 mL/min/kg | 1360 ng·h/mL | 222 min | 41% | yes | 0.16 | 6.6 ×10⁻⁶ cm/s | 2.3-3.0 | 5.7 | – | – | – | Cc1cc(Nc2ncc3c(n2)N(C)CN(c2c(Cl)cccc2Cl)C3=O)ccc1N1CCNCC1 [CE 6] |
| 3.2 nM | 371 nM | 55 µM (≈ 28 µg/mL) | – | – | – | – | – | – | – | – | – | 8.1 ×10⁻⁶ cm/s | – | – | Cc1cc(Nc2ncc3c(n2)N(C)CN(c2c(Cl)cccc2Cl)C3=O)ccc1C1=CCN(C)CC1 [CE 178] |
| – | – | 215 µM (≈ 110 µg/mL) | 14 mL/min/kg | 1320 ng·h/mL | 270 min | 35% | no | 0.69 | – | – | 4 | 8.9 ×10⁻⁶ cm/s | improved solubility | improved chemical stability in solution | Cc1cc(Nc2ncc3c(n2)N(C)CN(c2c(Cl)cccc2Cl)C3=O)ccc1C1CCN(C)CC1 [Example 1, 3-(2,6-dichlorophenyl)-1-methyl-7-((3-methyl-4-(1-methylpiperidin-4-yl)phenyl)amino)-2,3-dihydropyrimido[4,5-d]pyrimidin-4(1H)-one] |
